The test system of series [1] is ob/ob mice. Put plainly: serum glucose, triglycerides and T4 in ob/ob mice, drug mixed in control diet over 7 days. The format is in vivo. Conditions: 2.5 mg/kg per day in diet.
Series [2] concerns ob/ob mice. The series can be described thus: serum glucose, triglycerides and T4 in diabetic mice, oral gavage in corn oil daily for seven days. The format is in vivo. Conditions: for Glucose Day 0 / Triglycerides Day 0: day 0 (pre-treatment).
Where [3] appears, read: 4 mg/kg, corn oil vehicle (second Table 9).
[4] abbreviates: 5 mg/kg, corn oil vehicle (Table 7).

For the compound `CC(/C=C/[C@@H]1C[C@]1(C)c1ccc2c(c1)C(C)(C)CCC2(C)C)=C\C(=O)O` [Standard compound, (2E,4E,1′S,2′S)-3-methyl-5-[2′-methyl-2′-(5,5,8,8-tetramethyl-5,6,7,8-tetrahydro-naphthalen-2-yl)-cyclopropyl]-penta-2,4-dienoic acid], in series [1], the “Glucose Day 3, 3 h” value was 107 mg/dL; the “Glucose Day 6, 3 h” value amounted to 136 mg/dL; the “T4 Day 7” value was 0.8 µg/dL; the “Triglycerides Day 3, 3 h” value amounted to 55 ± 23 mg/dL. Further, in series [1] (day 0 (pre-treatment)), the “Glucose Day 0” value was determined as 246 mg/dL and the “Triglycerides Day 0” value stood at 92 ± 41 mg/dL. Further, in series [2] (setting [3]), the “Glucose Day 3, 3 h” value was 312 mg/dL; the “Glucose Day 6, 3 h” value was 291 mg/dL; the “T4 Day 7” value worked out at 0.5 µg/dL; the “Triglycerides Day 3, 3 h” value is 309 mg/dL. Further, in series [2] (setting [3]), the “Glucose Day 0” value came to 544 mg/dL and the “Triglycerides Day 0” value came out at 261 mg/dL. Also, in series [2] (setting [4]), the “Glucose Day 3, 3 h” value is 301 mg/dL; the “Glucose Day 6, 3 h” value was 218 mg/dL; the “T4 Day 7” value was 2.7 µg/dL; the “Triglycerides Day 3, 3 h” value turned out to be 147 mg/dL. In addition, in series [2] (setting [4]), the “Glucose Day 0” value amounted to 389 mg/dL and the “Triglycerides Day 0” value was 149 mg/dL. For the same compound, the “serum thyroxine levels (in words)” value in series [2] (diabetic mammals) is reported as “undesirable side effect of reducing serum thyroxine levels”.

The values are drawn from US6887896B1, “7-[(7-Alkoxy)-chrom-3-en-6-yl]-heptatrienoic acid and 7-[(3-alkoxy)-5,6-dihydronaphthalen-2-yl]-heptatrienoic acid derivatives having serum glucose reducing activity” (Allergan, Inc., priority 2003, dated 2005).
